{
  "source": "paper PMC12165799",
  "about": "“Antimicrobial peptide developed with machine learning sequence optimization targets drug resistant Staphylococcus aureus in mice” (The Journal of Clinical Investigation, 2025)",
  "key": {"[1]": {"tested_on": "S. aureus MW2", "experiment": "RNAseq differential gene expression", "type": "cell-based, Staphylococcus aureus", "details": "0.5× MIC, 30 min", "procedure": "553 For RNAseq studies, we followed the recommended procedure by Novogene (Sacramento,\n554 CA, USA) (22). In brief, we used exponential cultures of S. aureus MW2 grown in TSB medium\n555 adjusted to OD600=0.4. We treated 10 ml of the bacterial culture with 0.5× MIC of CIT-8 or water\n556 (as a negative control) for 30 min at 37°C (180 rpm). After that, we washed the bacteria three times\n557 with PBS and stored the pellet at -80°C. We isolated total RNA from the pellet and checked the\n558 purity using the NanoPhotometer® spectrophotometer (Implen, CA, USA). We assessed RNA\n559 integrity and concentration using the RNA Nano 6000 Assay Kit following manufacturer\n560 instructions in a Bioanalyzer 2100 system (Agilent Technologies, CA, USA). We evaluated RNA\n561 degradation and contamination on 1% agarose gels. To prepare libraries for transcriptome\n562 sequencing, we used 1 µg RNA per sample as input material and generated sequencing libraries\n563 using NEBNext® UltraTM RNA Library Prep Kit for Illumina® (NEB, MA, USA) following\n564 manufacturer’s recommendations and added index codes to attribute sequences to each sample.\n565 Briefly, we purified mRNA from total RNA using poly-T oligo-attached magnetic beads, followed\n566 by fragmentation using divalent cations under elevated temperature in NEBNext First Strand\n567 Synthesis Reaction Buffer (5×). To synthesize cDNA, we used random hexamer primers and M-\n568 MuLV Reverse Transcriptase (RNase H-) to create the first strand, followed by DNA Polymerase\n569 I and RNase H to create the second strand (23). The remaining overhangs were converted into\n570 blunt ends using exonuclease/polymerase activities. We adenylated the 3’ ends of the DNA\n571 fragments, and further ligated NEBNext Adaptors with hairpin loop structures to prepare for\n572 hybridization. To select cDNA fragments of preferred length (150-200 bp), we purified the whole\n573 library fragments with AMPure XP system (Beckman Coulter, CA, USA). Next, to the size-\n574 selected, adaptor ligated cDNA, we added 3 µl USER Enzyme (NEB, MA, USA) at 37°C for 15\n575 min followed by 5 min at 95°C before carrying out the polymerase chain reaction (PCR). We\n576 performed the PCR with Phusion High-Fidelity DNA polymerase, Universal PCR primers, and\n577 Index (X) Primer. Finally, we purified the PCR products with an AMPure XP system (Beckman\n578 Coulter, CA, USA) and library quality was assessed on the Agilent Bioanalyzer 2100 system\n579 (Agilent Technologies, CA, USA). […]"}, "[2]": {"tested_on": "S. aureus isolates", "experimental": "305 Minimal inhibitory concentration (MIC) assay\n306 To determine the minimum concentration of peptide that inhibits the growth of bacteria,\n307 termed as the minimal inhibitory concentration (MIC), we used the broth microdilution method\n308 described by the Clinical and Laboratory Standards Institute (4). We made serial dilutions of 10×\n309 concentrated peptides (10 µl) in duplicate in 96-well plates (Cat no. 3595, Corning, NY, USA).\n310 We added 90 µl of logarithmic-phase bacteria at 1 × 10^6 CFU/ml (in TSB medium) to the peptides\n311 and then incubated the plates at 37°C for 18 hours. We determined the MIC using OD600\n312 measurements taken on a Spectra Max i3x spectrophotometer (Molecular Devices, CA, USA)."}, "[3]": {"tested_on": "TNFA, IL6, MCP1", "experiment": "Cytokine estimation in infected murine skin (prophylactic model)", "type": "in vivo, mice", "parameters": "TNFA in murine skin / IL6 in murine skin / MCP1 in murine skin: unit not given here", "details": "2% w/w", "procedure": "599 In vivo murine skin infection and treatment\n600 We used a topical skin-abraded murine infection model with minor modifications to test\n601 the in vivo efficacy of the CIT-8 peptide (25). We performed all mouse studies following the\n602 protocol approved by the Institutional Animal Care and Use Committee. In brief, we anesthetized\n603 female C57BL/6 mice (6 weeks) (Jackson Laboratory, Bar Harbor, ME, USA) with ketamine-\n604 xylazine (90 mg/kg ketamine and 10 mg/kg xylazine) via intraperitoneal injection. We shaved the\n605 dorsal side of the mice in the middle of the back (area=2 cm2). To disrupt skin integrity, we tape-\n606 stripped with Tensoplast® seven times in succession, replacing the tape each time, resulting in\n607 visibly damaged skin. We infected the damaged skin area with 1 × 10^7 CFU of S. aureus MW2\n608 (exponential phase bacteria in PBS) with an inoculum of 50 µl using a pipette tip. Ten minutes\n609 (prophylactic model) and 24 h (established model) after bacterial inoculation, we applied 30 mg\n610 of 1 and 2% (w/w) CIT-8 ointment in a white petroleum jelly base (Cat no. 19-090-843, Fisher\n611 Scientific, MA, USA) to the skin. We also included animal groups treated with only petroleum\n612 jelly or with 2% commercial mupirocin ointment as negative and positive controls, respectively.\n613 For pain management, we used the analgesic buprenorphine SR (0.05 mg/kg).\n614 After 24 h of treatment, we euthanized the animals, separated the skin from the underlying\n615 fascia and muscle tissue, and excised about 2 cm2 of skin from the infected area. We ground the\n616 skin in 1ml of PBS buffer (Gibco, MD, USA). We serially diluted 100 µl of the solution in PBS\n617 and plated it on Remel™ TSA plates (Fisher, MA, USA) to estimate viable colony counts after 18\n618 h of incubation at 37 °C. Further, we added 10 µl of EDTA-Free, protease inhibitor cocktail Set III\n619 (Millipore Sigma, MA, USA) to 500 µl of the ground skin PBS solution for cytokine estimation.\n620 The Cytokine Core, LLC (Indianapolis, IN, USA) performed the cytokine concentration analysis"}},
  "note": "Like-named read-outs stand apart in the source and are kept apart here.",
  "data": [
    {"substance": "H-GLFKVIKKLLKVI-NH2 [CIT-8]", "values": [
      {"measurement": "Downregulation of tRNAGln", "setting": "[1]", "result": 8.5, "unit": "fold"},
      {"measurement": "Downregulation of tRNAarg", "setting": "[1]", "result": 7.7, "unit": "fold"},
      {"measurement": "Downregulation of tRNAcys", "setting": "[1]", "result": 6.8, "unit": "fold"},
      {"measurement": "Downregulation of tRNAser", "setting": "[1]", "result": 8.4, "unit": "fold"},
      {"measurement": "Upregulation of pdxS", "setting": "[1]", "result": 5.3, "unit": "fold"},
      {"measurement": "Upregulation of purH", "setting": "[1]", "result": 3.6, "unit": "fold"},
      {"measurement": "Upregulation of purL", "setting": "[1]", "result": 5.2, "unit": "fold"},
      {"measurement": "Upregulation of purQ", "setting": "[1]", "result": 5.0, "unit": "fold"},
      {"measurement": "Upregulation of purS", "setting": "[1]", "result": 5.0, "unit": "fold"},
      {"measurement": "Number of genes downregulated by at least 2-fold", "setting": "[1]; P < 0.05", "result": 267, "unit": "genes"},
      {"measurement": "Number of genes upregulated by more than 2-fold", "setting": "[1]; P < 0.05", "result": 179, "unit": "genes"},
      {"measurement": "MIC", "setting": "[2]; S. aureus AR0215 (VISA)", "result": 4, "unit": "µg/mL"},
      {"measurement": "MIC", "setting": "[2]; S. aureus AR0216 (VISA)", "result": 8, "unit": "µg/mL"},
      {"measurement": "MIC", "setting": "[2]; S. aureus AR0217 (VISA)", "result": 4, "unit": "µg/mL"},
      {"measurement": "MIC", "setting": "[2]; S. aureus AR0219 (VISA)", "result": 8, "unit": "µg/mL"},
      {"measurement": "MIC", "setting": "[2]; S. aureus AR0225 (VISA)", "result": 4, "unit": "µg/mL"},
      {"measurement": "MIC", "setting": "[2]; S. aureus BF1 (clinical isolate)", "result": 4, "unit": "µg/mL"},
      {"measurement": "MIC", "setting": "[2]; S. aureus BF2 (clinical isolate)", "result": 8, "unit": "µg/mL"},
      {"measurement": "MIC", "setting": "[2]; S. aureus BF3 (clinical isolate)", "result": 8, "unit": "µg/mL"},
      {"measurement": "MIC", "setting": "[2]; S. aureus BF4 (clinical isolate)", "result": 4, "unit": "µg/mL"},
      {"measurement": "MIC", "setting": "[2]; S. aureus BF5 (clinical isolate)", "result": 4, "unit": "µg/mL"},
      {"measurement": "MIC", "setting": "[2]; S. aureus BF6 (clinical isolate)", "result": 4, "unit": "µg/mL"},
      {"measurement": "MIC", "setting": "[2]; S. aureus BF7 (clinical isolate)", "result": 4, "unit": "µg/mL"},
      {"measurement": "MIC", "setting": "[2]; S. aureus BF8 (clinical isolate)", "result": 4, "unit": "µg/mL"},
      {"measurement": "MIC", "setting": "[2]; S. aureus BF9 (clinical isolate)", "result": 4, "unit": "µg/mL"},
      {"measurement": "MIC", "setting": "[2]; S. aureus BF10 (clinical isolate)", "result": 4, "unit": "µg/mL"},
      {"measurement": "MIC", "setting": "[2]; S. aureus BF11 (clinical isolate)", "result": 4, "unit": "µg/mL"},
      {"measurement": "MIC", "setting": "[2]; S. aureus JE2 (MRSA)", "result": 4, "unit": "µg/mL"},
      {"measurement": "MIC", "setting": "[2]; S. aureus VRS1 (VRSA)", "result": 4, "unit": "µg/mL"},
      {"measurement": "MIC against various VRSA, MRSA, VISA, and S. aureus clinical isolates", "setting": "[2]; range over the isolates of Table 3", "result": "4 to 8", "unit": "µg/mL"},
      {"measurement": "IL6 in murine skin", "setting": "[3]; animal 1", "result": 3.152},
      {"measurement": "MCP1 in murine skin", "setting": "[3]; animal 1", "result": 6.488},
      {"measurement": "TNFA in murine skin", "setting": "[3]; animal 1", "result": 126},
      {"measurement": "IL6 in murine skin", "setting": "[3]; animal 2", "result": 2.798},
      {"measurement": "MCP1 in murine skin", "setting": "[3]; animal 2", "result": 3.271},
      {"measurement": "TNFA in murine skin", "setting": "[3]; animal 2", "result": 153.385},
      {"measurement": "IL6 in murine skin", "setting": "[3]; animal 3", "result": 1.183},
      {"measurement": "MCP1 in murine skin", "setting": "[3]; animal 3", "result": 2.973},
      {"measurement": "TNFA in murine skin", "setting": "[3]; animal 3", "result": 114.591},
      {"measurement": "IL6 in murine skin", "setting": "[3]; animal 4", "result": 2.409},
      {"measurement": "MCP1 in murine skin", "setting": "[3]; animal 4", "result": 4.047},
      {"measurement": "TNFA in murine skin", "setting": "[3]; animal 4", "result": 182.154},
      {"measurement": "IL6 in murine skin", "setting": "[3]; animal 5", "result": 1.071},
      {"measurement": "MCP1 in murine skin", "setting": "[3]; animal 5", "result": 1.51},
      {"measurement": "TNFA in murine skin", "setting": "[3]; animal 5", "result": 103},
      {"measurement": "IL6 in murine skin", "setting": "[3]; animal 6", "result": 5.43},
      {"measurement": "MCP1 in murine skin", "setting": "[3]; animal 6", "result": 10.445},
      {"measurement": "TNFA in murine skin", "setting": "[3]; animal 6", "result": 372.2},
      {"measurement": "Reduction of IL6 level in skin", "setting": "[3]; n = 6", "result": 5, "unit": "fold"},
      {"measurement": "Reduction of MCP1 level in skin", "setting": "[3]; n = 6", "result": 5, "unit": "fold"},
      {"measurement": "Reduction of TNFA level in skin", "setting": "[3]; n = 6", "result": 2.5, "unit": "fold"}
    ]}
  ]
}
